The text below walks through data of the NIST ThermoML archive (doi:10.1016/j.fluid.2015.02.007).

± gives the expanded uncertainty stated by the source.

A short description of series [1]: Molar enthalpy of transition or fusion. The settings on record: Crystal; DSC.
For series [2] the following is noted: Crystal; DTA.

As to `O=C(O)c1cccnc1Nc1cccc(C(F)(F)F)c1`, in series [1], the “Molar enthalpy of transition or fusion” value was 8.38 ± 0.182 kcal/mol. Further, the Normal melting temperature in series [2] stood at 204.00 ± 1.5 °C.
On to `Cc1c(Cl)cccc1Nc1ccccc1C(=O)O` [2-[(3-chloro-2-methylphenyl)amino]benzoic acid], for which the “Molar enthalpy of transition or fusion” value in series [1] was 7.52 ± 0.165 kcal/mol. Also, the Normal melting temperature in series [2] is 214.00 ± 1.1 °C.
`O=C(O)c1ccccc1Nc1cccc(Cl)c1Cl` [clofenamic acid]: the “Molar enthalpy of transition or fusion” value in series [1] was 7.26 ± 0.16 kcal/mol. Further, the Normal melting temperature in series [2] was 171.00 ± 0.88 °C.
